Measurements published in publication PMC12395807, “Chemoreceptor family in plant-associated bacteria responds preferentially to the plant signal molecule glycerol 3-phosphate” (Genome Biology, 2025).

Tests used:
[1] = target: LBD of chemoreceptor R6 (WP_174062248.1); test: ITC binding to R6-LBD; parameters: species or system Agrobacterium larrymoorei; settings: 20 °C, Nb = no binding
Description: (§1) Plasmids for the overexpression of the different proteins were transformed into E. coli BL21(DE3). The resulting strains were grown under continuous stirring (200 rpm) at 30 °C in 2-L Erlenmeyer flasks containing 500 mL of LB medium supplemented with 50 μg/mL kanamycin. At an OD660 of 0.5, protein expression was induced by the addition of 0.1 mM isopropyl β-D-1-thiogalactopyranoside. Growth was continued at 16 °C overnight prior to cell harvesting by centrifugation at 10,000 × g for 20 min. Cell pellets were resuspended in buffer A (Additional file 2: Table S4) and subsequently broken by French press treatment at 62.5 lb/in^2. After centrifugation at 20,000 × g for 30 min, the supernatants were loaded onto 5-mL HisTrap HP columns (Amersham Biosciences) equilibrated with buffer A, and the proteins were eluted with a linear gradient of buffer B (Additional file 2: Table S4). All proteins contain a hexa-histidine tag at the N-terminal extension (Additional file 2: Table S3) and were purified at 4 °C. The purified proteins were dialyzed overnight into the corresponding analysis buffers (Additional file 2: Table S4) for immediate analysis.
(§2) All experiments were conducted on a VP microcalorimeter (Microcal, MA) at 15 °C for PacP-LBD and at 20 °C for the remaining proteins. Proteins were dialyzed into the analysis buffers specified in Additional file 2: Table S4, placed into the sample cell and titrated with aliquots of ligand solutions (1 to 10 mM) freshly prepared in dialysis buffer. The mean enthalpies measured from the injection of the ligands into the analysis buffer were subtracted from the raw titration data prior to data analysis with the MicroCal version of ORIGIN. The data were fitted with the “One binding site model” of ORIGIN.

[2] = target: LBD of chemoreceptor R9 (WP_189529961.1) (Paludibacterium paludis, UniProt A0A918NWY2); test: ITC binding to R9-LBD; settings: 20 °C, Nb = no binding
Description: as §1, §2

[3] = tested on: P. atrosepticum SCRI1043 pacP mutant (MpacP); test: Quantitative capillary chemotaxis assay, pacP mutant; assay type: cell-based, Pectobacterium atrosepticum; settings: 1 mM ligand
Source text: A mutant defective in ECA_RS12390 was constructed by homologous recombination using a derivative plasmid of the suicide vector pKNG101. Briefly, a 0.5-kb fragment corresponding to the region encoding the LBD of ECA_RS12390 was amplified by the primers specified in Additional file 2: Table S2 and cloned into pGEM®-T. The resulting plasmid pGEM::ECA_RS12390 was digested with XmaI, and the 0.5-kb insert was cloned into the same site at pKNG101 to generate pKNG101::ECA_RS12390. This plasmid was subsequently transformed into P. atrosepticum SRCI1043 via biparental conjugation using E. coli β2163. All the plasmids were verified by PCR and sequencing. The pETb(+) derivatives encoding the LBD of the different receptors analyzed in this study (Table 1) were purchased from GeneScript. Plasmid pBBR-ECA_RS12390 was constructed by amplifying the pacP gene using the primers detailed in Additional file 2: Table S2 and cloning of the PCR product into the NdeI/BamHI sites of pBBR1MCS2_START. The sequences of the proteins analyzed in this study are provided in Additional file 2: Table S3. The ECA_RS12390 nucleotide sequence is available in the published genome of P. atrosepticum SCRI1043 [60].
Overnight cultures of P. atrosepticum SCRI1043 were grown at 30 °C in minimal medium. At an OD660 of 0.4–0.45, the cultures were washed twice with chemotaxis buffer (50 mM K2HPO4/KH2PO4, 20 μM EDTA, 0.05% (v/v) glycerol, pH 7.0) and diluted to an OD660 of 0.1 in the same buffer. Subsequently, 230 μL of the resulting bacterial suspension was placed into the wells of 96-well plates. One-microliter capillary tubes (P1424, Microcaps; Drummond Scientific) were heat-sealed at one end and filled with either chemotaxis buffer (negative control) or chemotaxis buffer containing PacP ligands at a concentration of 1 mM. The capillaries were immersed in the bacterial suspensions at their open ends. After 30 min at room temperature, the capillaries were removed from the bacterial suspensions, rinsed with sterile water, and the contents were expelled into 1 mL of 40 mM K2HPO4, 15 mM KH2PO4. Serial dilutions were plated onto minimal medium supplemented with 15 mM glucose as the carbon source. The number of colony-forming units was determined after 36 h of incubation at 30 °C. In all the cases, the data were corrected with the number of cells that swam into the buffer-containing capillaries.

[4] = target: ligand binding domain of the chemoreceptor ECA_RS12390 (PacP-LBD, R1, WP_011094075.1) (Pectobacterium atrosepticum, UniProt Q6D464); test: ITC binding to PacP-LBD; settings: 15 °C, Nb = no binding
Description: as §1, §2

Bacillus subtilis = tested on: Bacillus subtilis; parameters: method as in PMID 119030, PMID 500565; settings: cited from earlier work
[5] = target: LBD of chemoreceptor R5 (WP_028444678.1); test: ITC binding to R5-LBD; parameters: species or system Chitinimonas koreensis; settings: 20 °C, Nb = no binding
Description: as §1, §2

[6] = target: LBD of chemoreceptor R3 (WP_006464688.1) (Herbaspirillum frisingense, UniProt A0ABU1PC34); test: ITC binding to R3-LBD; settings: 20 °C, Nb = no binding
Description: as §1, §2

R4 LBD (WP_158281851.1) = test: Thermal shift ligand screening of R4; assay type: binding, Rivicola pingtungensis; settings: thermal shift assay, R4, arrays PM1, PM2A, PM3B, PM4A
Description: (§3) Assays were carried out on a MyIQ2 Real-Time PCR instrument (Bio-Rad, Hercules, CA, USA). Ligand solutions were prepared by dissolving the array compounds in 50 µL of Milli-Q water, which, according to the manufacturer, corresponds to a concentration of 10–20 mM. Freshly purified proteins were dialyzed into analysis buffer (Additional file 2: Table S4). Compound arrays PM1, PM2A (carbon sources), PM3B (nitrogen sources), and PM4A (phosphorus and sulfur sources) from Biolog (https://www.biolog.com/) were used. The compositions of these arrays are provided in Additional file 2: Table S1. The experiments were conducted in 96-well plates, and each assay mixture contained 20 µL of the dialyzed protein (at 80–50 µM), 2 µL of 5 × SYPRO orange (Life Technologies, Eugene, Oregon, USA), and 2.5 µL of the resuspended array compound or the equivalent amount of buffer in the ligand-free control. The samples were heated from 23 to 85 °C at a scan rate of 1 °C/min. The protein unfolding curves were monitored by detecting changes in SYPRO® Orange fluorescence. The Tm values were determined from the first derivative values of the raw fluorescence data.

R2 LBD (WP_136157342.1) = test: Thermal shift ligand screening of R2; assay type: binding, Brenneria roseae; settings: thermal shift assay, R2, arrays PM1, PM2A, PM3B, PM4A
Description: as §3

LBD of chemoreceptor R3 (WP_006464688.1), sequence (A0ABU1PC34 entry or part of it): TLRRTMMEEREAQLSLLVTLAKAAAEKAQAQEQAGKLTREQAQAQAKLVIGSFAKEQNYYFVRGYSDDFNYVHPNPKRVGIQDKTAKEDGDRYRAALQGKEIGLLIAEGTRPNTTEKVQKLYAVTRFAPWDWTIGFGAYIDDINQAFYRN
ligand binding domain of the chemoreceptor ECA_RS12390 (PacP-LBD, R1, WP_011094075.1), sequence (Q6D464 entry or part of it): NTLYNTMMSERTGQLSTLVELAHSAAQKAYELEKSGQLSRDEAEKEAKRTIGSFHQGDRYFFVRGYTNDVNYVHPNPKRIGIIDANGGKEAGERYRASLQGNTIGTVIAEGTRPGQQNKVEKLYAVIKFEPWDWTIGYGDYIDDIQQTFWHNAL
LBD of chemoreceptor R9 (WP_189529961.1), sequence (A0A918NWY2 entry or part of it): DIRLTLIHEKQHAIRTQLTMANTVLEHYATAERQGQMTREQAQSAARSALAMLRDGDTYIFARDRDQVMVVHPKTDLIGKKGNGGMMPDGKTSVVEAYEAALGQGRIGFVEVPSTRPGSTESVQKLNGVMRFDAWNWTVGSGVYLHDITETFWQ

Compound	KD [1]	KD [2]	chemotaxis (capillary assay) [3]	Kd [4]	chemotaxis (Bacillus subtilis)	KD [5]	KD [6]	Tm change (R4 LBD (WP_158281851.1))	Tm change (R2 LBD (WP_136157342.1))	Kd [6]
O=C(O)[C@@H](O)COP(=O)(O)O [3-phosphoglycerate]	Nb	Nb	Only glycerol 2-phosphate served as an attractant for the mutant	88 ± 5 µM	weak chemotaxis	Nb	Nb			
O=P(O)(O)OCC(O)CO (centres unmarked) [glycerol 3-phosphate]	Nb	Nb	Only glycerol 2-phosphate served as an attractant for the mutant	3 ± 0.2 µM	weak chemotaxis	Nb	bound	significant increases in the Tm	increases in the Tm	33 ± 1 µM
